Where two headings read alike, the source gives them in different places.
System: Pfeiffer cells, lymphoma cells having EZH2 mutation (A677G)
Assay: Proliferation inhibition of cells of hematologic malignancies (CCK-8, 11 days)
Format: cell-based
Settings: 11 days culture, read-out: Cell proliferation inhibitory effect (IC50)
Outline: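 Pfeiffer lymphoma cells (EZH2 A677G) in RPMI1640 with 10% FBS were seeded at 10,000 cells/well and exposed to test material for 11 days, with compound replaced every 3–4 days. Viability was read by CCK-8 absorbance at 450 nm, and IC50 was derived by non-linear regression curve fitting.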

| Structure (SMILES) | IC50 (Homo sapiens, Pfeiffer, 264 h) | IC50 |
| --- | --- | --- |
| CSc1cc(C)[nH]c(=O)c1CNC(=O)c1cc(-c2cnc(N3CCCCC3)nc2)c2c(c1C)OC(C)(C1CCN(CC(F)(F)F)CC1)O2 (stereo not shown) [Compound 39, 2,4-dimethyl-N-((6-methyl-4-(methylthio)-2-oxo-1,2-dihydropyridin-3-yl)methyl)-7-(2-(piperidin-1-yl)pyrimidin-5-yl)-2-(1-(2,2,2-trifluoroethyl)piperidin-4-yl)benzo[d][1,3]dioxole-5-carboxamide] | ≤ 10 nM | – |
| CSc1cc(C)[nH]c(=O)c1CNC(=O)c1cc(-c2ccsc2)c2c(c1C)OC(C)(C1CCC(N(C)C)CC1)O2 (stereo not shown) [Compound 42, 2-(4-(dimethylamino)cyclohexyl)-2,4-dimethyl-N-((6-methyl-4-(methylthio)-2-oxo-1,2-dihydropyridin-3-yl)methyl)-7-(thiophen-3-yl)benzo[d][1,3]dioxole-5-carboxamide] | ≤ 10 nM | – |
| CCCCN(C)c1ncc(-c2cc(C(=O)NCc3c(SC)cc(C)[nH]c3=O)c(C)c3c2OC(C)(C2CCN(CC(F)(F)F)CC2)O3)cn1 (stereo not shown) [Compound 99] | ≥ 100 nM | – |
| CSc1cc(C)[nH]c(=O)c1CNC(=O)c1cc(-c2ccc3c(c2)OC(F)(F)O3)c2c(c1C)OC(C)(C1CCN(CC(F)(F)F)CC1)O2 (stereo not shown) [Compound 93, 2′,2′-difluoro-2,7-dimethyl-N-((6-methyl-4-(methylthio)-2-oxo-1,2-dihydropyridin-3-yl)methyl)-2-(1-(2,2,2-trifluoroethyl)piperidin-4-yl)-[4,5′-bibenzo[d][1,3]dioxol]-6-carboxamide] | ≥ 100 nM | – |
| CSc1cc(C)[nH]c(=O)c1CNC(=O)c1cc(-c2ccc(N3CCOCC3)nc2)c2c(c1C)OC(C)(C1CCN(CC(F)(F)F)CC1)O2 (stereo not shown) [Compound 63, 2,4-dimethyl-N-((6-methyl-4-(methylthio)-2-oxo-1,2-dihydropyridin-3-yl)methyl)-7-(6-morpholinopyridin-3-yl)-2-(1-(2,2,2-trifluoro)piperidin-4-yl)benzo[d][1,3]dioxole-5-carboxamide] | – | ≥ 100 nM |
| CSc1cc(C)[nH]c(=O)c1CNC(=O)c1cc(-c2cnc(N3CCOCC3)nc2)c2c(c1C)OC(C)(C1CCN(CC(F)F)CC1)O2 (single isomer, unassigned) [Compound 72, 2-(1-(2,2-difluoroethyl)piperidin-4-yl)-2,4-dimethyl-N-((6-methyl-4-(methylthio)-2-oxo-1,2-dihydropyridin-3-yl)methyl)-7-(2-morpholinopyrimidin-5-yl)benzo[d][1,3]dioxole-5-carboxamide] | – | ≥ 100 nM |
| CSc1cc(C)[nH]c(=O)c1CNC(=O)c1cc(-c2ccc(N3CCCCC3)cc2)c2c(c1C)OC(C)(C1CCN(CC(F)(F)F)CC1)O2 (stereo not shown) [Compound 90, 2,4-dimethyl-N-((6-methyl-4-(methylthio)-2-oxo-1,2-dihydropyridin-3-yl)methyl)-7-(4-(piperidin-1-yl)phenyl)-2-(1-(2,2,2-trifluoroethyl)piperidin-4-yl)benzo[d][1,3]dioxole-5-carboxamide] | 10 to 100 nM | – |
| CSc1cc(C)[nH]c(=O)c1CNC(=O)c1cc(-c2ccc3c(ccn3C)c2)c2c(c1C)OC(C)([C@H]1CC[C@H](N(C)C)CC1)O2 (stereo partly drawn) [Compound 7, 2-(trans-4-(dimethylamino)cyclohexyl)-2,4-dimethyl-7-(1-methyl-1H-indol-5-yl)-N-((6-methyl-4-(methylthio)-2-oxo-1,2-dihydropyridin-3-yl)methyl)benzo[d][1,3]dioxole-5-carboxamide] | ≤ 10 nM | – |
| CSc1cc(C)[nH]c(=O)c1CNC(=O)c1cc(-c2cnc(N3CCCCC3)nc2)c2c(c1C)OC(C)([C@H]1CC[C@H](N(C)C)CC1)O2 (stereo partly drawn) [Compound 4, 2-(trans-4-(dimethylamino)cyclohexyl)-2,4-dimethyl-N-((6-methyl-4-(methylthio)-2-oxo-1,2-dihydropyridin-3-yl)methyl)-7-(2-(piperidin-1-yl)pyrimidin-5-yl)benzo[d][1,3]dioxole-5-carboxamide] | ≤ 10 nM | – |
| CSc1cc(C)[nH]c(=O)c1CNC(=O)c1cc(-c2ccc3occc3c2)c2c(c1C)OC(C)(C1CCN(CC(F)F)CC1)O2 (stereo not shown) [Compound 97, 7-(benzofuran-5-yl)-2-(1-(2,2-difluoroethyl)piperidin-4-yl)-2,4-dimethyl-N-((6-methyl-4-(methylthio)-2-oxo-1,2-dihydropyridin-3-yl)methyl)benzo[d][1,3]dioxole-5-carboxamide] | ≥ 100 nM | – |
| CSc1cc(C)[nH]c(=O)c1CNC(=O)c1cc(-c2ccc(F)nc2F)c2c(c1C)OC(C)([C@H]1CC[C@H](N(C)C)CC1)O2 (stereo partly drawn) [Compound 14, 7-(2,6-difluoropyridin-3-yl)-2-(trans-4-(dimethylamino)cyclohexyl)-2,4-dimethyl-N-((6-methyl-4-(methylthio)-2-oxo-1,2-dihydropyridin-3-yl)methyl)benzo[d][1,3]dioxole-5-carboxamide] | ≤ 10 nM | – |
| CSc1cc(C)[nH]c(=O)c1CNC(=O)c1cc(-c2cnc(N3CCC4(CC3)COC4)nc2)c2c(c1C)OC(C)([C@H]1CC[C@H](N(C)C)CC1)O2 (stereo partly drawn) [Compound 15, 7-(2-(2-oxa-7-azaspiro[3.5]nonan-7-yl)pyrimidin-5-yl)-2-(trans-4-(dimethylamino)cyclohexyl)-2,4-dimethyl-N-((6-methyl-4-(methylthio)-2-oxo-1,2-dihydropyridin-3-yl)methyl)benzo[d][1,3]dioxole-5-carboxamide] | ≤ 10 nM | – |

Next, values leading:

| IC50 (Homo sapiens, Pfeiffer, 264 h) | IC50 | Structure (SMILES) |
| --- | --- | --- |
| – | ≥ 100 nM | CSc1cc(C)[nH]c(=O)c1CNC(=O)c1cc(-c2ccc(N3C[C@@H](C)O[C@@H](C)C3)nc2)c2c(c1C)OC(C)(C1CCN(C3CCCCC3)CC1)O2 (single isomer, unassigned) [Compound 54] |
| 10 to 100 nM | – | CSc1cc(C)[nH]c(=O)c1CNC(=O)c1cc(-c2ccc(N3CC(C)CC(C)C3)nc2)c2c(c1C)OC(C)(C1CCN(CC(F)(F)F)CC1)O2 (stereo not shown) [Compound 37, 7-(6-(3,5-dimethylpiperidin-1-yl)pyridin-3-yl)-2,4-dimethyl-N-((6-methyl-4-(methylthio)-2-oxo-1,2-dihydropyridin-3-yl)methyl)-2-(1-(2,2,2-trifluoroethyl)piperidin-4-yl)benzo[d][1,3]dioxole-5-carboxamide] |
| – | ≤ 10 nM | CSc1cc(C)[nH]c(=O)c1CNC(=O)c1cc(-c2ccc(N3C[C@@H](C)O[C@@H](C)C3)nc2)c2c(c1C)OC(C)(C1CCN(CCc3ccccc3)CC1)O2 (single isomer, unassigned) [Compound 55] |
| ≤ 10 nM | – | COCCN(C)[C@H]1CC[C@H](C2(C)Oc3c(-c4cnc(N5C[C@@H](C)O[C@@H](C)C5)nc4)cc(C(=O)NCc4c(SC)cc(C)[nH]c4=O)c(C)c3O2)CC1 (stereo partly drawn) [Compound 25, 7-(2-((2S,6R)-2,6-dimethylmorpholino)pyrimidin-5-yl)-2-(trans-4-((2-methoxyethyl)(methyl)amino)cyclohexyl)-2,4-dimethyl-N-((6-methyl-4-(methylthio)-2-oxo-1,2-dihydropyridin-3-yl)methyl)benzo[d][1,3]dioxole-5-carboxamide] |
| ≤ 10 nM | – | CSc1cc(C)[nH]c(=O)c1CNC(=O)c1cc(-c2ccc(N3C[C@@H](C)O[C@@H](C)C3)nc2)c2c(c1C)OC(C)([C@H]1CC[C@H](N3CC(O)C3)CC1)O2 (stereo partly drawn) [Compound 101, 7-(6-((2S,6R)-2,6-dimethylmorpholino)pyridin-3-yl)-2-(trans-4-(3-hydroxyazetidin-1-yl)cyclohexyl)-2,4-dimethyl-N-((6-methyl-4-(methylthio)-2-oxo-1,2-dihydropyridin-3-yl)methyl)benzo[d][1,3]dioxole-5-carboxamide] |
| ≤ 10 nM | – | CSc1cc(C)[nH]c(=O)c1CNC(=O)c1cc(-c2ccc(N3C[C@@H](C)O[C@@H](C)C3)nc2)c2c(c1C)OC(C)(C1CCN(CC(F)(F)F)CC1)O2 (stereo partly drawn) [Compound 33, 7-(6-((2S,6R)-2,6-dimethylmorpholino)pyridin-3-yl)-2,4-dimethyl-N-((6-methyl-4-(methylthio)-2-oxo-1,2-dihydropyridin-3-yl)methyl)-2-(1-(2,2,2-trifluoroethyl)piperidin-4-yl)benzo[d][1,3]dioxole-5-carboxamide] |
| ≤ 10 nM | – | CSc1cc(C)[nH]c(=O)c1CNC(=O)c1cc(-c2ccc(N3C[C@@H](C)O[C@@H](C)C3)nc2)c2c(c1C)OC(C)([C@H]1CC[C@H](N(C)CCc3ccccc3)CC1)O2 (stereo partly drawn) [Compound 112, 7-(6-((2S,6R)-2,6-dimethylmorpholino)pyridin-3-yl)-2,4-dimethyl-2-(trans-4-(methyl(phenethyl)amino)cyclohexyl)-N-((6-methyl-4-(methylthio)-2-oxo-1,2-dihydropyridin-3-yl)methyl)benzo[d][1,3]dioxole-5-carboxamide] |
| ≤ 10 nM | – | CSc1cc(C)[nH]c(=O)c1CNC(=O)c1cc(-c2ccc(N3CCSCC3)nc2)c2c(c1C)OC(C)([C@H]1CC[C@H](N(C)C)CC1)O2 (stereo partly drawn) [Compound 17, 2-(trans-4-(dimethylamino)cyclohexyl)-2,4-dimethyl-N-((6-methyl-4-(methylthio)-2-oxo-1,2-dihydropyridin-3-yl)methyl)-7-(6-thiomorpholinopyridin-3-yl)benzo[d][1,3]dioxole-5-carboxamide] |
| – | ≤ 10 nM | CSc1cc(C)[nH]c(=O)c1CNC(=O)c1cc(-c2ccc(N3C[C@@H](C)O[C@@H](C)C3)nc2)c2c(c1C)OC(C)(C1CCN(CC(F)(F)F)CC1)O2 (single isomer, unassigned) [Compound 44] |
| ≤ 10 nM | – | CSc1cc(C)[nH]c(=O)c1CNC(=O)c1cc(-c2ccc(N3CCC(F)(F)CC3)nc2)c2c(c1C)OC(C)([C@H]1CC[C@H](N(C)C)CC1)O2 (stereo partly drawn) [Compound 3, 7-(6-(4,4-difluoropiperidin-1-yl)pyridin-3-yl)-2-(trans-4-(dimethylamino)cyclohexyl)-2,4-dimethyl-N-((6-methyl-4-(methylthio)-2-oxo-1,2-dihydropyridin-3-yl)methyl)benzo[d][1,3]dioxole-5-carboxamide] |

Reference: patent US20250059180A1 (DONG WHA PHARM. CO., LTD., priority 2022, published 2025)
